For orientation: IC50 means the concentration that gives 50% inhibition. As a reminder, the Papp A→B is how fast a substance crosses the layer from the apical side.

The subject of data set [1] is SAS cells. Nature of the data set: SAS CTG proliferation assay (120 h) (HNSCC, wt amplified). Format: cell-based. In a few lines:
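SAS cells plated at 300 per well in DMEM:F12 with 10% FCS and left overnight, then given compounds acoustically. After 120 h exposure, viability read by CellTiter-Glo as percent of DMSO control. IC50 from four-parameter non-linear regression.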

Data set [2] relates to KRAS G12D-dependent Ba/F3 cells. The data set is described as follows: Ba/F3 proliferation assay, KRAS G12D. It counts as cell-based. To be noted: Mus musculus, BaF3, 72 h, AlamarBlue. In a few lines:
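Viability is measured as AlamarBlue fluorescence in Ba/F3 cells that depend on a transduced mutant KRAS isoform for growth without IL-3. Each treatment is run in technical duplicate, and dose-response curves are fitted.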

Data set [3] deals with NCI-H358 cells. Nature of the data set: NCI-H358 CTG proliferation assay (120 h) (NSCLC, G12C). It counts as cell-based, human. To be noted: Homo sapiens, assay 2, CTG, read-out: H358 (assay 2) IC50. A digest of the protocol: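 NCI-H358 cells (KRAS G12C) were seeded at 2000/well (assay 1) or 200/well (assay 2) in RPMI-1640 + 10% FCS and dosed with a logarithmic series, DMSO-normalized. After 120 h, viability was read by CellTiter-Glo luminescence as percent of DMSO control, with a T0 read at dosing. IC50 came from a four-parameter fit.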

Data set [4] can be described thus: Caco-2 assay (permeability PappAB, PappBA, efflux ratio). Format: in vitro ADME. To be noted: human, Caco-2, 10 μM test compound, pH 7.4; for Papp A→B at 90 min, 10 μM: apical to basolateral; for efflux ratio at 90 min, 10 μM: efflux ratio PappBA/PappAB, read-out: Caco ER. In a few lines: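 Confluent Caco-2 monolayers on filter supports, 0.25% BSA in both donor and receiver buffer; transport measured a-b and b-a. After 25-30 min preincubation at 37 °C, samples at 0, 30, 60, 90 min quantified by HPLC/MS/MS. Papp from receiver amount per time, filter area and initial donor concentration; efflux ratio = PappBA/PappAB.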
On the technique in general: Caco-2 monolayers are a common model of the intestinal barrier.

Data set [5] deals with AsPC-1 cells. Nature of the data set: AsPC-1 CTG proliferation assay (120 h) (pancreatic cancer, G12D). It counts as cell-based. To be noted: Homo sapiens, ASPC1. In a few lines:
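AsPC-1 cells (KRAS G12D), 2000/well in RPMI with 10% FCS, seeded overnight, then treated with compound for 120 h at 37 °C. Viability by CellTiter-Glo luminescence as percent of DMSO control. IC50 from a four-parameter non-linear fit.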

`CO[C@@H]1C[C@@H]([C@H](C)Oc2cc(-n3ccnc3)nc(-c3noc4c3CCC[C@@]43CCCc4sc(N)c(C#N)c43)n2)N(C)C1` [II-58]: the IC50 is 342 nM in data set [1], 45 nM in data set [2], 562 nM in data set [3] and 6420 nM in data set [5]. The Papp A→B at 90 min, 10 μM in data set [4] is 13 ×10⁻⁶ cm/s. Moreover, in data set [4], the efflux ratio at 90 min, 10 μM stood at 1.2.

`COC(=O)c1ccc(-c2cc(O[C@@H](C)[C@@H]3CCCN3C)nc(-c3noc4c3CCC[C@@]43CCCc4sc(N)c(C#N)c43)n2)o1` [II-114]: the half-inhibitory concentration (IC50) was determined as 28 nM in data set [1], 99 nM in data set [2], 123 nM in data set [3] and 2300 nM in data set [5]. Besides, in data set [4], the efflux ratio at 90 min, 10 μM was determined as 0.9.

Regarding `C[C@H](Oc1cc(-c2cn[nH]c2)nc(-c2noc3c2CCC[C@@]32CCCc3sc(N)c(C#N)c32)n1)[C@@H]1CCCN1C` [II-87], the IC50 in data set [1] is 107 nM; in data set [2], 150 nM; in data set [3], 106 nM; in data set [5], 3060 nM. Also, the Papp A→B at 90 min, 10 μM in data set [4] is less than 1.7 ×10⁻⁶ cm/s.

Regarding `C[C@H](Oc1cc(-n2cc(-c3cccnc3)nn2)nc(-c2noc3c2CCC[C@@]32CCCc3sc(N)c(C#N)c32)n1)[C@@H]1CCCN1C` [II-123], the IC50 was found to be 113 nM in data set [1], 93 nM in data set [2], 439 nM in data set [3] and 1540 nM in data set [5]. Moreover, in data set [4], the efflux ratio at 90 min, 10 μM came to 4.6.

Turning to `C[C@H](Oc1cc(C2CCOCC2)nc(-c2noc3c2CCC[C@@]32CCCc3sc(N)c(C#N)c32)n1)[C@@H]1CCCN1C` [II-76], the IC50 was 66 nM in data set [1], 30 nM in data set [2], 507 nM in data set [3] and 3970 nM in data set [5]. In addition, the Papp A→B at 90 min, 10 μM in data set [4] worked out at 6.5 ×10⁻⁶ cm/s. Further, the efflux ratio at 90 min, 10 μM in data set [4] came out at 3.7.

On to `C[C@H](Oc1cc(-n2cc(Cn3ccnc3)nn2)nc(-c2noc3c2CCC[C@@]32CCCc3sc(N)c(C#N)c32)n1)[C@@H]1CCCN1C` [II-113], for which the IC50 in data set [1] was found to be 381 nM; in data set [2], 106 nM; in data set [3], 128 nM; in data set [5], 2010 nM. Besides, in data set [4], the Papp A→B at 90 min, 10 μM was determined as 1.1 ×10⁻⁶ cm/s. Besides, the efflux ratio at 90 min, 10 μM in data set [4] came to 30.9.
